Assay results as given in a compilation of properties of binary mixtures (doi:10.1016/j.fluid.2022.113559).

Test: xn = mol fraction of the nth substance listed
Details: 101 kPa, x1 = 0.3333

SMILES	viscosity (283.15 K) [mPa·s]	viscosity (288.15 K) [mPa·s]	viscosity (298.15 K) [mPa·s]	viscosity (303.15 K) [mPa·s]	viscosity (313.15 K) [mPa·s]	viscosity (318.15 K) [mPa·s]	viscosity (323.15 K) [mPa·s]	viscosity (333.15 K) [mPa·s]	viscosity (338.15 K) [mPa·s]	viscosity (343.15 K) [mPa·s]	viscosity (348.15 K) [mPa·s]	viscosity (353.15 K) [mPa·s]	viscosity (308.15 K) [mPa·s]	viscosity (328.15 K) [mPa·s]
CC[n+]1ccn(C)c1.N#C[S-] + CS(C)=O	3.95	3.58	2.92	2.63	2.12	1.91	1.73	1.44	1.34	1.26	1.21	1.19		
CCOS(=O)(=O)[O-].CC[n+]1ccn(C)c1 + CS(C)=O	4.35		3.16	2.83		2.02	1.82	1.5	1.39	1.32		1.24	2.53	1.64
